The record followed here is ChEMBL document CHEMBL1147910, “Novel C-5 aminomethyl pyrrolotriazine dual inhibitors of EGFR and HER2 protein tyrosine kinases” (Bioorg Med Chem Lett, 2007).

Where only a bound is given, the exact number is not on record here.

In data set [1] the target is Receptor tyrosine-protein kinase erbB-2 (Homo sapiens, UniProt P04626). As to the kind of experiment: Inhibition of human HER2.
Data set [2] in a line: Metabolic stability in mouse liver microsomes at 3 uM in presence of NADPH after 10 min. The format is ADME, Microsome. On the technique in general: Microsomes from liver hold many membrane-bound enzymes, among them those of drug oxidation.
The test system of a further data set is A2780. Put plainly: Antiproliferative activity against human A2780 cells. The format is functional, cell-based.
Data set [3] deals with NCI-N87. As to the kind of experiment: Antiproliferative activity against human N87 cells. The data set is classed as functional, cell-based.
Data set [4] deals with Epidermal growth factor receptor (Homo sapiens, UniProt P00533).
Another data set deals with HT-29. As to the kind of experiment: Antiproliferative activity against human HT29 cells.
Data set [5] is described as follows: Drug level in BALB/c mouse plasma at 50 mg/kg, po after 4 hrs. The data set is classed as ADME, organism-based. Details: dose 50 mg/kg, route oral.
For data set [6], the system named is NCI-N87. As to the kind of experiment: animal or person. The note with it: Mus musculus, NCI-N87, po, 336 h, read-out: TGI.
Description: (§1) Antitumor activity against human N87 cells xenografted in athymic mouse at 135 mg/kg, po twice daily after 14 days
Data set [7] can be described thus: AUC in BALB/c mouse at 90 mg/kg, po. The format is ADME, organism-based. Details: dose 90 mg/kg, route oral. The note with it: plasma.
The nature of data set [8]: Aqueous solubility in phosphate buffer at pH 7.5. The data set is classed as physicochemical.
Data set [9] in a line: Mean residence time in BALB/c mouse at 10 mg/kg, iv. The note with it: in vivo. Details: dose 10 mg/kg, route intravenous. The data set is classed as ADME, organism-based.
A short description of data set [10]: Tmax in BALB/c mouse at 90 mg/kg, po. The data set is classed as ADME, organism-based. Also on record: dose 90 mg/kg, route oral. The note with it: in vivo.
Data set [11] can be described thus: Toxicity in human N87 cells xenografted athymic mouse. The data set is classed as organism-based, NCI-N87. The note with it: in vivo. On the technique in general: In xenograft studies the graft and the host belong to different species.
Data set [12] is described as follows: Aqueous solubility at pH 3.9. The note with it: buffer. The data set is classed as physicochemical.
In data set [13] the test system is NCI-N87. As to the kind of experiment: animal or person. To be noted: Mus musculus, NCI-N87, po, 336 h, read-out: TGI. The source holds these as a separate data set.
Description: Antitumor activity against human N87 cells xenografted in athymic mouse at 180 mg/kg, po twice daily after 14 days
Data set [14] in a line: Plasma clearance in BALB/c mouse at 10 mg/kg, iv. The format is ADME, organism-based. Details: dose 10 mg/kg, route intravenous.
Data set [15] is described as follows: Oral bioavailability in BALB/c mouse at 90 mg/kg, po. The data set is classed as ADME, organism-based. To be noted: in vivo.
The nature of data set [16]: Volume of distribution at steady state in BALB/c mouse at 10 mg/kg, iv. The format is ADME, organism-based. Details: dose 10 mg/kg, route intravenous. The note with it: in vivo, read-out: Vss.
Data set [17] in a line: Half life in BALB/c mouse at 10 mg/kg, iv. The data set is classed as ADME, organism-based. Details: dose 10 mg/kg, route intravenous. To be noted: in vivo.
In another data set the test system is Plasma. Put plainly: Fraction unbound ligand in BALB/c mouse plasma. The format is ADME, cell-free.
Data set [18] can be described thus: Mortality in human N87 cells xenografted athymic mouse at 180 mg/kg, po. The data set is classed as organism-based, NCI-N87. Also on record: dose 180 mg/kg, route oral. To be noted: in vivo, read-out: Activity.
The subject of data set [19] is NCI-N87. As to the kind of experiment: Antitumor activity against human N87 cells xenografted in athymic mouse at 90 mg/kg, po twice daily after 14 days. To be noted: 336 h, read-out: TGI.
Data set [20] relates to NCI-N87. Put plainly: animal or person. To be noted: Mus musculus, NCI-N87, po, 336 h, read-out: TGI. This is another data set of the same source.
Description: as §1
Data set [21] is described as follows: Cmax in BALB/c mouse at 90 mg/kg, po. The format is ADME, organism-based. Details: dose 90 mg/kg, route oral. To be noted: in vivo.
Data set [22] is described as follows: Antitumor activity against human GEO cells xenografted in athymic mouse at 90 mg/kg, po twice daily after 14 days. The note with it: 336 h, read-out: TGI.

A word on the IC50: it is the concentration needed to halve the response being measured. What is called AUC is the area under the concentration-time curve, a measure of exposure. Higher therefore signals high exposure. One may read the MRT as the average time that molecules of a dose stay in the body. As a reminder, the Tmax is the time at which the peak concentration occurs. Broadly, the clearance is a measure of how efficiently the substance is removed, as volume per time. Read a low clearance as inefficient removal. As a reminder, the bioavailability is the share of a dose that reaches the circulation, judged against a reference dose that is usually intravenous. Higher therefore signals good availability. One may read the half-life as how long it takes for the measured level to halve. A high value points to slow loss. Usually Cmax stands for the maximum level reached in the sampled fluid or tissue.

Sequence of Epidermal growth factor receptor (P00533 whole entry): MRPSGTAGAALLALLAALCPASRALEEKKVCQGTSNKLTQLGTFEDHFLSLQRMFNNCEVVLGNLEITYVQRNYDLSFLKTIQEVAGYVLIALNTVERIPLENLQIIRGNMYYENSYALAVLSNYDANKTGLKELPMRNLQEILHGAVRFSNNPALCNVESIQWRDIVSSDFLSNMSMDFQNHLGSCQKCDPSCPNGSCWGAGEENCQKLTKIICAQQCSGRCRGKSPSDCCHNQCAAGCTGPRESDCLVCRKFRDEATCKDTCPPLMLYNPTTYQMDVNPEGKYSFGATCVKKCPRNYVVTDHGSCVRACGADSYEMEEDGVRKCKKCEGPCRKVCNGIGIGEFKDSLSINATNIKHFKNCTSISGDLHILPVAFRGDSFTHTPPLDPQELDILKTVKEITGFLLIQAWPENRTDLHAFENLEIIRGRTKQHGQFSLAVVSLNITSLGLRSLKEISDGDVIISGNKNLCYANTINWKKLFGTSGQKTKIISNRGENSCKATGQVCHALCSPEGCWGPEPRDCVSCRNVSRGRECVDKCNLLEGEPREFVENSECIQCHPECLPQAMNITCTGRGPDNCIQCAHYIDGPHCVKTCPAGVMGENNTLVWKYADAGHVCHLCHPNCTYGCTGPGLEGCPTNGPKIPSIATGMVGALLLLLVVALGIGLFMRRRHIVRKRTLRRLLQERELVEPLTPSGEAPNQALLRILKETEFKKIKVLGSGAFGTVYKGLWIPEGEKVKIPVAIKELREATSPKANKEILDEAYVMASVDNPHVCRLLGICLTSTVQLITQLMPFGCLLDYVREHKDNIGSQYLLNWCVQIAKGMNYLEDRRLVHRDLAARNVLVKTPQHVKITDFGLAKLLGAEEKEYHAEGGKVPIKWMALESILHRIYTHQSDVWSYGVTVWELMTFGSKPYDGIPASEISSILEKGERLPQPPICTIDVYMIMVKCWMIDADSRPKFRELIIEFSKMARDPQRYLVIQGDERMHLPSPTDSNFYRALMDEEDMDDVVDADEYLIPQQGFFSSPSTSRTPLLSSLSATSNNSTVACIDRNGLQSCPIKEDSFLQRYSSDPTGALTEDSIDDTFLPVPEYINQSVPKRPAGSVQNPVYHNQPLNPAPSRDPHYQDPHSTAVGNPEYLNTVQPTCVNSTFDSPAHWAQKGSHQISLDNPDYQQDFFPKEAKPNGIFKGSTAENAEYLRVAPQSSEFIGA
Sequence of Receptor tyrosine-protein kinase erbB-2 (P04626 whole entry): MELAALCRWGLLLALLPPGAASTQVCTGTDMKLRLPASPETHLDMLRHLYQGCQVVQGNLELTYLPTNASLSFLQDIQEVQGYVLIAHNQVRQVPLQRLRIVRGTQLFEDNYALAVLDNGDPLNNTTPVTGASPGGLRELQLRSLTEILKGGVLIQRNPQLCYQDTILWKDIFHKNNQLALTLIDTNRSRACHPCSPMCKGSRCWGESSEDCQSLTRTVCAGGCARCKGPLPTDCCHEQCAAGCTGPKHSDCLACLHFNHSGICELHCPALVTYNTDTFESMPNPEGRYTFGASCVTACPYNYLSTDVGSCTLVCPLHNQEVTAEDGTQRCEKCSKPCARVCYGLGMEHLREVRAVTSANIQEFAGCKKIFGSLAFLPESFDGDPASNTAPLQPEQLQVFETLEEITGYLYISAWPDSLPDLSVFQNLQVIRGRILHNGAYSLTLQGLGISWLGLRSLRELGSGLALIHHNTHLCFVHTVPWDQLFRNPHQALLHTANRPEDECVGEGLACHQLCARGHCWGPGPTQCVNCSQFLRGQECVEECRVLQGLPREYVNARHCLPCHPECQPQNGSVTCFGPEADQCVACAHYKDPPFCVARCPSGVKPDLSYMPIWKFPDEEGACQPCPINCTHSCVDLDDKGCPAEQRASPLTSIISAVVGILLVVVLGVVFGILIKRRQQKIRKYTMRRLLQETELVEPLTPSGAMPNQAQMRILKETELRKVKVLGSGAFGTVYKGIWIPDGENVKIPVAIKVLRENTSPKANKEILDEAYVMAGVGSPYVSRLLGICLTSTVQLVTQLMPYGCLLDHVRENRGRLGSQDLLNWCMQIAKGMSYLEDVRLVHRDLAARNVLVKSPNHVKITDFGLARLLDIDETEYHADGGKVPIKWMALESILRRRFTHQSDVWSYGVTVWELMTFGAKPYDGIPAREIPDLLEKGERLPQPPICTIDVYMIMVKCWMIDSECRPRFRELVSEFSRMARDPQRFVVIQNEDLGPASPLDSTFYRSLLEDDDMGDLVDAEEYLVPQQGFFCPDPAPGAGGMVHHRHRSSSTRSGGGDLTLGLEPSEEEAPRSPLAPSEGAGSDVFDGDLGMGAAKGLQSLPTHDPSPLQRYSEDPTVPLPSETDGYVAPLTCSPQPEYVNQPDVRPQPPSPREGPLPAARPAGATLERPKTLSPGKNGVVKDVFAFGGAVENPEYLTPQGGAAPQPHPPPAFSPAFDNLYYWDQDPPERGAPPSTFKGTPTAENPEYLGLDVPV

As for `CC1CNCCN(Cc2ccn3ncnc(Nc4ccc5c(cnn5Cc5cccc(F)c5)c4)c23)C1` (configuration not stated), the IC50 in data set [1] is 0.074 µM; in the data set with A2780 it was > 2.1 µM; in the data set with NCI-N87 [3] it was 0.68 µM; in data set [4], 0.13 µM. In [2], the metabolic rate turned out to be 0 nmol/min/mg.
For `O=C(O)C1CCN(Cc2ccn3ncnc(Nc4ccc5c(cnn5Cc5cccc(F)c5)c4)c23)CC1`, the figures for the IC50 (in the data set on HT-29; in data set [1]; with NCI-N87 [3]) were > 10 µM, 0.11 µM and > 5 µM, respectively. In data set [5], this compound had a concentration at 4 h of 0.6 µM. Also, the metabolic rate in data set [2] was determined as 0.23 nmol/min/mg.
Consider `Cc1ccn2ncnc(Nc3ccc4c(cnn4Cc4cccc(F)c4)c3)c12`, for which the IC50 in the data set with HT-29 is > 10 µM. For the same compound, the concentration at 4 h in data set [5] was determined as 4.1 µM. In addition, the metabolic rate in data set [2] turned out to be 0.14 nmol/min/mg.
In data set [5], `CC(=O)N1CCN(Cc2ccn3ncnc(Nc4ccc5c(cnn5Cc5cccc(F)c5)c4)c23)CC1` gave a concentration at 4 h of 4.1 µM. In addition, the IC50 amounted to 0.61 µM in data set [1] and 0.71 µM in data set [4].
Turning to `OCCNCc1ccn2ncnc(Nc3ccc4c(cnn4Cc4cccc(F)c4)c3)c12`, the IC50 was determined as 0.047 µM in data set [1], 1.95 µM with NCI-N87 [3] and 0.045 µM in data set [4].
`CN1CCN(Cc2ccn3ncnc(Nc4ccc5c(cnn5Cc5cccc(F)c5)c4)c23)CC1` returned a concentration at 4 h in data set [5] of 0.48 µM. Moreover, the IC50 in data set [1] stood at 0.12 µM; in the data set on NCI-N87 [3], 0.49 µM; in data set [4], 0.17 µM.
The compound `OC1CCN(Cc2ccn3ncnc(Nc4ccc5c(cnn5Cc5cccc(F)c5)c4)c23)CC1` returned a concentration at 4 h in data set [5] of 0.25 µM. Besides, the values for the IC50 (in [1]; in the data set on NCI-N87 [3]; in data set [4]) were 0.063 µM, 0.14 µM and 0.068 µM, respectively. Also, the metabolic rate in data set [2] is 0.29 nmol/min/mg.
On to `COC(=O)C1CCN(Cc2ccn3ncnc(Nc4ccc5c(cnn5Cc5cccc(F)c5)c4)c23)CC1`, for which the IC50 in the data set on HT-29 was > 10 µM; in data set [1], > 1 µM; in the data set on NCI-N87 [3] it was > 5 µM; in [4] it was 1 µM. This compound had a concentration at 4 h in data set [5] of 0.027 µM.
`Fc1cccc(Cn2ncc3cc(Nc4ncnn5ccc(CN6CCNCC6)c45)ccc32)c1`: the concentration at 4 h in data set [5] worked out at 6.3 µM. In addition, the figures for the IC50 (in data set [1]; in the data set with NCI-N87 [3]; in data set [4]) were 0.081 µM, 0.73 µM and 0.09 µM, respectively. Besides, the metabolic rate in data set [2] is 0 nmol/min/mg.
For the compound `CS(=O)(=O)N1CCCN(Cc2ccn3ncnc(Nc4ccc5c(cnn5Cc5cccc(F)c5)c4)c23)CC1`, the IC50 in the data set with HT-29 is > 10 µM; in data set [1] it was 0.12 µM; with NCI-N87 [3] it was 0.33 µM; in [4], 0.21 µM.
In the same order, the values of `O=C1CNCCN(Cc2ccn3ncnc(Nc4ccc5c(cnn5Cc5cccc(F)c5)c4)c23)C1` are > 10 µM, 0.039 µM, 0.65 µM and 0.78 µM.
Regarding `CN1CCCN(Cc2ccn3ncnc(Nc4ccc5c(cnn5Cc5cccc(F)c5)c4)c23)CC1`, the IC50 was > 7.9 µM with HT-29, 0.12 µM in data set [1], 0.62 µM in the data set with NCI-N87 [3] and 0.13 µM in [4]. In data set [5], this compound gave a concentration at 4 h of 0.093 µM. Further, the metabolic rate in data set [2] turned out to be 0.21 nmol/min/mg.
On to `Fc1cccc(Cn2ncc3cc(Nc4ncnn5ccc(CN6CCCNCC6)c45)ccc32)c1`, for which the figures for the inhibition in vivo at 135 mg/kg in the data set on NCI-N87 [6] and with NCI-N87 [20] were 78% and 111%, respectively. In [7], this compound returned an AUC of 48.9 µM·h. In addition, the results for the Solubility in [8] and in data set [12] were 0.012 mg/kg and 9.7 mg/kg, respectively. Further, in [9], the MRT was determined as 4 h. The Tmax in [10] was 3 h. Moreover, in [11], the MTD stood at 180 mg/kg. In addition, the IC50 in the data set with HT-29 is > 3.6 µM; in data set [1], 0.027 µM; in data set [4], 0.033 µM. The same compound had a concentration at 4 h in data set [5] of 1.3 µM. In addition, in data set [2], the metabolic rate stood at 0.05 nmol/min/mg. Besides, the inhibition in vivo at 180 mg/kg with NCI-N87 [13] was 121%. Further, the clearance in [14] is 2.34 L/h/kg. Moreover, the bioavailability in data set [15] is 77%. Besides, the Vd in data set [16] was found to be 9.5 L/kg. Also, in data set [17], the half-life is 3.7 h. The compound also came in with a PB in the data set with Plasma of 98.4%. Also, the mortality in [18] was found to be 12%. For the same compound, the inhibition in vivo at 90 mg/kg in the data set on NCI-N87 [19] was 97%; in data set [22], 90%. In addition, the Cmax in data set [21] worked out at 7.95 µM.
As for `COC1CNCCN(Cc2ccn3ncnc(Nc4ccc5c(cnn5Cc5cccc(F)c5)c4)c23)C1` (configuration not stated), the IC50 in [1] is 0.17 µM; in the data set on A2780, > 5 µM; in the data set on NCI-N87 [3] it was 3.7 µM; in data set [4], 0.19 µM.
Regarding `CN(CCO)Cc1ccn2ncnc(Nc3ccc4c(cnn4Cc4cccc(F)c4)c3)c12`, the midpoint of inhibition in the data set with NCI-N87 [3], the IC50, lay at 1.2 µM.
As to `O=C1CCN(Cc2ccn3ncnc(Nc4ccc5c(cnn5Cc5cccc(F)c5)c4)c23)CCN1`, the IC50 in the data set with HT-29 was > 10 µM; in [1], 0.75 µM; in the data set with NCI-N87 [3], 0.2 µM; in data set [4], 0.24 µM. This compound yielded a concentration at 4 h in data set [5] of 0.044 µM. In addition, the metabolic rate in data set [2] turned out to be 0.27 nmol/min/mg.
Regarding `O=C1CN(Cc2ccn3ncnc(Nc4ccc5c(cnn5Cc5cccc(F)c5)c4)c23)CCN1`, the IC50 in the data set with HT-29 was > 10 µM; in data set [1], 0.2 µM; with NCI-N87 [3] it was 0.52 µM; in data set [4], 0.35 µM.
In the case of `Fc1cccc(Cn2ncc3cc(Nc4ncnn5ccc(CN6CCCC6)c45)ccc32)c1`, the IC50 in data set [1] stood at 0.36 µM; in data set [4], 0.5 µM.
For the compound `NC(=O)C1CCN(Cc2ccn3ncnc(Nc4ccc5c(cnn5Cc5cccc(F)c5)c4)c23)CC1`, the IC50 was found to be 0.31 µM in data set [1], 0.4 µM in the data set on NCI-N87 [3] and 0.14 µM in [4].
Turning to `O[C@@H]1CNCCN(Cc2ccn3ncnc(Nc4ccc5c(cnn5Cc5cccc(F)c5)c4)c23)C1`, the IC50 in the data set on HT-29 was > 10 µM; in data set [1], 0.076 µM; in the data set with NCI-N87 [3] it was 0.95 µM; in data set [4] it was 0.2 µM. In [5], this compound gave a concentration at 4 h of 0.88 µM. Also, in data set [2], the metabolic rate came out at 0.12 nmol/min/mg.
In the case of `O[C@H]1CNCCN(Cc2ccn3ncnc(Nc4ccc5c(cnn5Cc5cccc(F)c5)c4)c23)C1`, the IC50 in the data set on HT-29 was > 10 µM; in data set [1], 0.016 µM; in the data set with NCI-N87 [3], 0.16 µM; in data set [4], 0.026 µM. In data set [5], this compound displayed a concentration at 4 h of 1.51 µM. Also, in data set [2], the metabolic rate stood at 0.12 nmol/min/mg.
